# Measurements reported in ChEMBL document CHEMBL5113380, “Functionalized quinoxalinones as privileged structures with broad-ranging pharmacological activities” (Eur J Med Chem, 2022).
# Tests used:
# Glutamate receptor 2 = Glutamate receptor 2 (Homo sapiens, UniProt P42262); test: Binding affinity to GluA2 receptor (unknown origin)
# [1] = biological target: Glutamate receptor ionotropic, kainate 1 (Homo sapiens, UniProt P39086); test: Binding affinity to GluK1 receptor (unknown origin)
# Alpha amylase = biological target: T1, Alpha amylase (Homo sapiens, UniProt P0DUB6); test: Inhibition of alpha-amylase (unknown origin)
# T1 sequence (P0DUB6 whole entry): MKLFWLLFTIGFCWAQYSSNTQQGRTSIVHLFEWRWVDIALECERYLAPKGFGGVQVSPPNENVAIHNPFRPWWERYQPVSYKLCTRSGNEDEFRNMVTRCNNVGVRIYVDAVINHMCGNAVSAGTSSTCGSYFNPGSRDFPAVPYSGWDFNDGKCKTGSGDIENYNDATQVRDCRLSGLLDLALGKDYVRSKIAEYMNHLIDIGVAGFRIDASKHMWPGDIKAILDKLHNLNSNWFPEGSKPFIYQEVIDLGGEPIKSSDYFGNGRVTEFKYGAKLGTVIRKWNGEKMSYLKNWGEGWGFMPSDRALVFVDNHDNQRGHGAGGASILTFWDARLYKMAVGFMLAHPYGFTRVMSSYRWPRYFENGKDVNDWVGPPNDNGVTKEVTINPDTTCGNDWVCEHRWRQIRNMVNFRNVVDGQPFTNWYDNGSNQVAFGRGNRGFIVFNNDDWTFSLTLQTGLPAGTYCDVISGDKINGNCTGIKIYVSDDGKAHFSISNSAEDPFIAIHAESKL
# [2] = biological target: T2, Glutamate receptor ionotropic AMPA (Homo sapiens, UniProt P42261+P42262+P42263+P48058); test: Binding affinity to AMPA receptor (unknown origin); format: protein-complex assay
# [3] = biological target: Glutamate receptor ionotropic, kainate 2 (Homo sapiens, UniProt Q13002); test: Binding affinity to GluK2 receptor (unknown origin)
# [4] = Binding affinity to KA receptor (unknown origin); set-up: species or system Homo sapiens
# [5] = biological target: Glutamate [NMDA] receptor; test: Binding affinity to NMDA receptor (unknown origin); format: protein-complex assay, Homo sapiens
# [6] = biological target: Human immunodeficiency virus type 1 reverse transcriptase (Human immunodeficiency virus 1, UniProt Q72547); test: Inhibition of HIV1 reverse transcriptase
# [7] = biological target: Human immunodeficiency virus type 1 reverse transcriptase (Human immunodeficiency virus 1) (UniProt Q72547); test: Inhibition of HIV1 reverse transcriptase at 10 uM relative to control
# [8] = biological target: Human immunodeficiency virus type 1 reverse transcriptase (Human immunodeficiency virus 1) (UniProt Q72547); test: Inhibition of HIV1 reverse transcriptase at 100 uM relative to control
# Homo sapiens = species: Homo sapiens; test: Inhibition of human TRK relative to control; set-up: concentration or dose not given beside the values; details: concentration not given here
# [9] = biological target: Prostaglandin G/H synthase 1 (Homo sapiens, UniProt P23219)
# [10] = Inhibition of palmitate-induced lipid accumulation in human HepG2 cells relative to control; format: functional
# [11] = Inhibition of ALR2 (unknown origin); set-up: species or system Homo sapiens
# [12] = Inhibition of ALR1 (unknown origin) relative to control; set-up: concentration or dose not given beside the values; details: Homo sapiens; concentration not given here
# [13] = Antioxidant activity assessed as DPPH radical scavenging activity at 100 uM; format: functional
# Candida albicans = test: Antifungal activity against Candida albicans; format: functional
# Klebsiella pneumoniae = test: Antibacterial activity against Klebsiella pneumoniae; format: functional
# [14] = Antioxidant activity assessed as DPPH radical scavenging activity; format: functional; details: read-out: IC50
# [15] = biological target: T2, Glutamate receptor ionotropic AMPA; test: Displacement of [3H]AMPA from AMPA receptor (unknown origin); format: protein-complex assay
# [16] = biological target: T2, Glutamate receptor ionotropic AMPA; test: Displacement of [3H]kainic acid from AMPA receptor (unknown origin); format: protein-complex assay
# [17] = Displacement of [3H]glycine from AMPA receptor (unknown origin); format: protein-complex assay, Homo sapiens
# MCF7 = test: Antiproliferative activity against human MCF7 cells; format: functional, cell-based
# HepG2 = test: Antiproliferative activity against human HepG2 cells; format: functional, cell-based
# HeLa = test: Antiproliferative activity against human HeLa cells; format: functional, cell-based
# Pseudomonas aeruginosa = test: Antibacterial activity against Pseudomonas aeruginosa; format: functional
# Escherichia coli = test: Antibacterial activity against Escherichia coli; format: functional
# Staphylococcus aureus = test: Antibacterial activity against Staphylococcus aureus; format: functional
# Bacillus cereus = test: Antibacterial activity against Bacillus cereus; format: functional
# Aspergillus niger = test: Antifungal activity against Aspergillus niger; format: functional
# [18] = test system: Trichophyton mentagrophytes; test: Antimicrobial activity against Trichophyton mentagrophytes; format: functional
# Glutamate receptor 2, sequence (P42262 whole entry): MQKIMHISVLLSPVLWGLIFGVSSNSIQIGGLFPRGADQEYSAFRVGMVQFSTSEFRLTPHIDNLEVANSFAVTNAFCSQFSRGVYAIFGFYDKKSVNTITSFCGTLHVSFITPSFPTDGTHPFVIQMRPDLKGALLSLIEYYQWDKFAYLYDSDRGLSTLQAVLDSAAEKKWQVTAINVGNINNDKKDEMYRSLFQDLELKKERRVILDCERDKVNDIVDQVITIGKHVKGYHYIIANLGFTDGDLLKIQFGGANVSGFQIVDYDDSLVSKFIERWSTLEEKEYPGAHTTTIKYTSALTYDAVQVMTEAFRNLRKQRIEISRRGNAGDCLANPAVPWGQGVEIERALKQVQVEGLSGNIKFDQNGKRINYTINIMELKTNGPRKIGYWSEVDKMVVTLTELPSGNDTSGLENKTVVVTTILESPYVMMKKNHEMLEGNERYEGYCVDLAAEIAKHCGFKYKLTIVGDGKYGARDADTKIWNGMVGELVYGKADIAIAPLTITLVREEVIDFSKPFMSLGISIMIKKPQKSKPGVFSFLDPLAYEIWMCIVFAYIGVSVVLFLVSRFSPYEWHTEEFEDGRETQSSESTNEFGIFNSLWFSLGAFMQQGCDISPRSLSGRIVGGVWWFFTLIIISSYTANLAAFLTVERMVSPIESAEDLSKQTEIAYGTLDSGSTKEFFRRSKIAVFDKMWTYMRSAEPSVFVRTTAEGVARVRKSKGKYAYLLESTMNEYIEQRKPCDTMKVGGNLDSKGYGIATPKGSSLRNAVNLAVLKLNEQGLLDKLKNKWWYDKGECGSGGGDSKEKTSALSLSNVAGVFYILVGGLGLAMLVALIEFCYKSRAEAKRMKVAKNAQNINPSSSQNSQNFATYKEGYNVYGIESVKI
# Glutamate receptor ionotropic, kainate 1, sequence (P39086 whole entry): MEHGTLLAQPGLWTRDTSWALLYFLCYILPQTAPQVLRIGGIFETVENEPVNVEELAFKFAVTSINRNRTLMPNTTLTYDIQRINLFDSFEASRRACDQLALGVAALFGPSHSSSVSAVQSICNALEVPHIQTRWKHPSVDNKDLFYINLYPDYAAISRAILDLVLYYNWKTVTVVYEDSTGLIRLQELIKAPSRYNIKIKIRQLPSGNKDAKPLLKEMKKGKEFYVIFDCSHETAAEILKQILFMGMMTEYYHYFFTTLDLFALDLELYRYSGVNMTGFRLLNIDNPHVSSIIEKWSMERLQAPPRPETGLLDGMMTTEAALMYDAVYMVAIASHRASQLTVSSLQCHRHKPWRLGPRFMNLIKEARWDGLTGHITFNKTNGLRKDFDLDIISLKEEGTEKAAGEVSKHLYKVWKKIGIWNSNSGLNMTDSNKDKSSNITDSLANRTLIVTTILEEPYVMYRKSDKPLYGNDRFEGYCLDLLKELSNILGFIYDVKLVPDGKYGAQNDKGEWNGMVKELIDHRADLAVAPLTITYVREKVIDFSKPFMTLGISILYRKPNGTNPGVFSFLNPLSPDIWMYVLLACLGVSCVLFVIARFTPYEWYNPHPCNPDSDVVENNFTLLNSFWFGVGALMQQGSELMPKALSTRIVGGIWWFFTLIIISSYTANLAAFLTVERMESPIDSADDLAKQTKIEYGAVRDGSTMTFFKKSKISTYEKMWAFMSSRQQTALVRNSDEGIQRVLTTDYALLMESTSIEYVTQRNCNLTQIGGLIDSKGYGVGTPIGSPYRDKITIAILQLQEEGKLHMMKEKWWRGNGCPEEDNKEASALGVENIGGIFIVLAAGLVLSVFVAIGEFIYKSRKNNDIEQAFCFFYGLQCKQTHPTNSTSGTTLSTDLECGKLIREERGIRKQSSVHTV
# Prostaglandin G/H synthase 1, sequence (P23219 whole entry): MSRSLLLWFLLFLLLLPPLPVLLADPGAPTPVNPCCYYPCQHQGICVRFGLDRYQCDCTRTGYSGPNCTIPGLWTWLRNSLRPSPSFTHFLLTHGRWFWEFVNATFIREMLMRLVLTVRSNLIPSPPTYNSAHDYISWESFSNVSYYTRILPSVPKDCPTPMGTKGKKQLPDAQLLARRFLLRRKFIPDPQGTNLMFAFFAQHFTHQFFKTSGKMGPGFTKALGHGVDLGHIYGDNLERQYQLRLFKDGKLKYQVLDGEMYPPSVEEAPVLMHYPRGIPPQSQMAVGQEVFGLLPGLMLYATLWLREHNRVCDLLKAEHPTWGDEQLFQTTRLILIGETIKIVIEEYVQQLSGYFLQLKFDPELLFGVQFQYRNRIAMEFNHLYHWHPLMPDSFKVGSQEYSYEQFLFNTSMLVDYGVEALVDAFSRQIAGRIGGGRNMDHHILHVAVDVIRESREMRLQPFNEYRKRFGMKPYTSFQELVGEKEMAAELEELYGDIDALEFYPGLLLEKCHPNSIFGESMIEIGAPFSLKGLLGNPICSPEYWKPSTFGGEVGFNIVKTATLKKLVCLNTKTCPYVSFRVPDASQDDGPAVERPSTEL
# Glutamate receptor ionotropic, kainate 2, sequence (Q13002 whole entry): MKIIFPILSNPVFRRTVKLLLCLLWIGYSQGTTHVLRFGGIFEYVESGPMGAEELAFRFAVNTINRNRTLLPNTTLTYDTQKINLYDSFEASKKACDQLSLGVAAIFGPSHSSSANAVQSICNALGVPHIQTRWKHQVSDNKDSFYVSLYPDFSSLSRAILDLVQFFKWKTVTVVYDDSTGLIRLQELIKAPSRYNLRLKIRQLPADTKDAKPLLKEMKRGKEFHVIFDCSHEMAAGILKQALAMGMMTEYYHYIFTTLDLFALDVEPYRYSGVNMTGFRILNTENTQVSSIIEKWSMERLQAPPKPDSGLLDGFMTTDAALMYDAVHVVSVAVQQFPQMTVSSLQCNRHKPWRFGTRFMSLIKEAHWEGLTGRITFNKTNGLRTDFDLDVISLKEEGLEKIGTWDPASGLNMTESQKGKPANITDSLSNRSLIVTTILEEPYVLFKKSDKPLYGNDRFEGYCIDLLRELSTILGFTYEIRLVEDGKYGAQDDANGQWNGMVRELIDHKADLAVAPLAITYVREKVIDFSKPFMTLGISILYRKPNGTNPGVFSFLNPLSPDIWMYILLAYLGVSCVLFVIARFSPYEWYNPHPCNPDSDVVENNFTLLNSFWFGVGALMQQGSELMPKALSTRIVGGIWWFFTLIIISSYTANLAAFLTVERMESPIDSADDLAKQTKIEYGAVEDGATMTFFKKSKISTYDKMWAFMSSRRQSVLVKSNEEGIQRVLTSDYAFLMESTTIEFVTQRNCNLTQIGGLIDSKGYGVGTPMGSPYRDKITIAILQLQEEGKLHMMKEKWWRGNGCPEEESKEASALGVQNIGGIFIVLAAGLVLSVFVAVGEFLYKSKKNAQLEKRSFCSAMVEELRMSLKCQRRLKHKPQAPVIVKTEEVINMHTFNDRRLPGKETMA
smiles,measurement,setting,value
O=C(Nn1c(=O)c(=O)[nH]c2cc(C#CCCO)ccc21)c1ccccc1,Ki,Glutamate receptor 2,> 100 µM
same,Ki,[1],12.7 µM
COc1cccc(/C=N/Nc2nc3ccccc3[nH]c2=O)c1,IC50,Alpha amylase,492.68 µM
O=c1[nH]c2ccc(-c3cccc(P(=O)(O)O)c3)cc2[nH]c1=O,IC50,[2],> 100 µM
same,Ki,Glutamate receptor 2,> 100 µM
same,Ki,[1],12 µM
same,Ki,[3],> 100 µM
same,IC50,[4],> 100 µM
same,Ki,[5],> 100 µM
CCC(=O)N1CC(=O)Nc2ccccc21,IC50,[6],0.63 µM
same,inhibition,[7],91%
same,inhibition,[8],99%
COC(=O)c1sccc1S(=O)(=O)N1c2cc(F)ccc2NC(=O)C1C (configuration not stated),IC50,[6],0.2 µM
COC(=O)c1sc(Cl)cc1S(=O)(=O)N1c2cc(Cl)ccc2NC(=O)C1C (configuration not stated),IC50,[6],0.07 µM
Cc1nn(-c2ccccc2)c(N2CCN(C)CC2)c1/C=N/Nc1nc2ccccc2nc1O,inhibition,Homo sapiens,83%
same,IC50,[9],> 50 µM
Cc1nn(-c2ccccc2)c(N2CCN(S(=O)(=O)c3ccccc3)CC2)c1/C=N/Nc1nc2ccccc2nc1O,inhibition,Homo sapiens,12%
Cc1ccc2c(c1)N[C@H](C)C(=O)N2,inhibition (INH),[10],50%
O=c1[nH]c2ccc(/C=C/CP(=O)(O)O)cc2[nH]c1=O,IC50,[2],> 100 µM
same,Ki,[1],> 100 µM
same,Ki,[3],> 100 µM
same,IC50,[4],> 100 µM
same,Ki,[5],69 µM
O=C(O)Cc1cccc(-c2ccc3[nH]c(=O)c(=O)[nH]c3c2)c1,IC50,[2],> 100 µM
same,Ki,[1],> 100 µM
same,Ki,[3],> 100 µM
same,IC50,[4],> 100 µM
same,Ki,[5],41 µM
O=C(O)c1ccc(-c2ccc3[nH]c(=O)c(=O)[nH]c3c2)cc1,IC50,[2],> 100 µM
same,Ki,Glutamate receptor 2,> 100 µM
same,Ki,[3],48 µM
same,IC50,[4],> 100 µM
same,Ki,[5],> 100 µM
Cc1nn(-c2ccccc2)c(Cl)c1/C=N/Nc1nc2ccccc2[nH]c1=O,inhibition,Homo sapiens,34%
same,IC50,[9],> 50 µM
O=C(O)Cn1c(=O)c(-c2ccc(O)cc2O)nc2ccc(F)cc21,IC50,[11],0.032 µM
same,inhibition,[12],46.2%
same,Activity,[13],9.1%
Cc1nn(-c2ccccc2)c(N2CCOCC2)c1/C=N/Nc1nc2ccccc2nc1O,inhibition,Homo sapiens,84%
same,IC50,[9],> 50 µM
CSCCc1nc2ccc(N3C(=O)CSC3c3ccc([N+](=O)[O-])cc3)cc2[nH]c1=O (configuration not stated),MBC,Candida albicans,353 µM
same,MBC,Klebsiella pneumoniae,706 µM
same,IC50,[14],28.9 µM
Cc1ccc(C(=O)O)cc1-c1ccc2[nH]c(=O)c(=O)[nH]c2c1,IC50,[2],30 µM
same,Ki,Glutamate receptor 2,> 100 µM
same,Ki,[1],1.3 µM
same,Ki,[3],> 100 µM
same,IC50,[4],> 100 µM
same,Ki,[5],> 100 µM
O=C(O)CNS(=O)(=O)c1ccc2nc(O)c(O)nc2c1,IC50,[2],> 100 µM
same,Ki,[1],> 100 µM
same,Ki,[3],> 100 µM
same,IC50,[4],> 100 µM
same,Ki,[5],53 µM
Cc1nn(-c2ccccc2)c(N2CCNCC2)c1/C=N/Nc1nc2ccccc2nc1O,inhibition,Homo sapiens,20%
same,IC50,[9],> 50 µM
O=c1[nH]c2ccccc2nc1N/N=C/c1cccs1,IC50,Alpha amylase,395.84 µM
Cc1nn(-c2ccccc2)c(N2CCCCC2)c1/C=N/Nc1nc2ccccc2nc1O,inhibition,Homo sapiens,74%
same,IC50,[9],> 50 µM
Cc1ccc2ncc(C)nc2c1,inhibition (INH),[10],20%
CC(C)c1nc2ccc(N3C(=O)CSC3c3ccc([N+](=O)[O-])cc3)cc2[nH]c1=O (configuration not stated),IC50,[14],162 µM
same,IC50,Alpha amylase,356.32 µM
CC(=O)N1CCN(c2c(/C=N/Nc3nc4ccccc4nc3O)c(C)nn2-c2ccccc2)CC1,inhibition,Homo sapiens,80%
same,IC50,[9],> 50 µM
O=c1[nH]c2ccc(CCP(=O)(O)O)cc2[nH]c1=O,IC50,[2],> 100 µM
same,Ki,[1],> 100 µM
same,Ki,[3],> 100 µM
same,IC50,[4],> 100 µM
same,Ki,[5],56 µM
O=C(O)c1cc(-c2ccc3[nH]c(=O)c(=O)[nH]c3c2)ccc1Cl,IC50,[2],24 µM
same,Ki,Glutamate receptor 2,> 100 µM
same,Ki,[1],1.2 µM
same,Ki,[3],33 µM
same,IC50,[4],57 µM
same,Ki,[5],> 100 µM
Cc1cnc2ccccc2n1,inhibition (INH),[10],20%
CC(C)COC(=O)N1CC(=O)Nc2ccccc21,inhibition,[7],20%
same,inhibition,[8],46%
N[C@@H](Cc1ccc2[nH]c(=O)c(=O)[nH]c2c1)C(=O)O,IC50,[15],203 µM
same,IC50,[16],> 300 µM
same,Ki,Glutamate receptor 2,> 100 µM
same,Ki,[1],> 100 µM
same,Ki,[3],136 µM
CC(C)COC(=O)N1c2ccccc2NC(=O)[C@H]1CC(C)C,IC50,[6],67 µM
same,inhibition,[7],22%
same,inhibition,[8],51%
COC(=O)c1sc(I)cc1S(=O)(=O)N1c2cc(Cl)ccc2NC(=O)C1C (configuration not stated),IC50,[6],0.075 µM
Cc1nn(-c2ccccc2)c(N(C)C)c1/C=N/Nc1nc2ccccc2nc1O,inhibition,Homo sapiens,62%
same,IC50,[9],> 50 µM
O=C(O)c1nc2c(=O)[nH]c3cc(Cl)cc(-n4cnnc4)c3n2n1,Ki,[15],0.4 µM
same,Ki,[17],2.3 µM
same,IC50,[16],37 µM
CC(=O)N1CC(=O)Nc2ccccc21,inhibition,[7],7%
same,inhibition,[8],56%
Cc1nn(-c2ccccc2)c(SCCCO)c1/C=N/Nc1nc2ccccc2[nH]c1=O,IC50,MCF7,11.3 µM
same,IC50,HepG2,23.4 µM
same,inhibition,Homo sapiens,78%
COC(=O)c1sccc1S(=O)(=O)N1c2cc(Cl)ccc2NC(=O)C1C (configuration not stated),IC50,[6],0.2 µM
O=c1[nH]c2ccc(CCCP(=O)(O)O)cc2[nH]c1=O,IC50,[2],> 100 µM
same,Ki,[1],> 100 µM
same,Ki,[3],> 100 µM
same,IC50,[4],> 100 µM
same,Ki,[5],55 µM
Cc1cccc2c1NC[C@H](C)N2,inhibition (INH),[10],30%
Cc1cccc2c1NCCN2,inhibition (INH),[10],30%
Cc1ccc2c(c1)N[C@@H](C)C(=O)N2,inhibition (INH),[10],50%
Nc1cc(Cl)cc2[nH]c(=O)c3nc(C(=O)O)nn3c12,Ki,[15],3.2 µM
same,Ki,[17],0.16 µM
same,IC50,[16],34.1 µM
COc1ccc(/C(=C(\C#N)C(=O)NN)n2c(=O)c(O)nc3ccccc32)cc1,IC50,MCF7,2.61 µM
same,IC50,HeLa,8.92 µM
O=C(O)c1ccccc1/C=C/c1ccc2[nH]c(=O)c(=O)[nH]c2c1,IC50,[2],0.48 µM
same,Ki,[1],1.4 µM
same,Ki,[3],2.5 µM
same,IC50,[4],24 µM
same,Ki,[5],> 100 µM
Cc1cccc2c1NC(=O)CN2,inhibition (INH),[10],50%
CN1CCNc2ccccc21,inhibition (INH),[10],30%
CCCCCCCCCn1c(=O)c2c(-c3ccccc3)nc(-c3ccc[n+](CCCCCCCCC)c3)n2c2ccccc21.[Br-],MBC,Pseudomonas aeruginosa,> 500 µg/mL
same,MIC,Pseudomonas aeruginosa,> 500 µg/mL
same,MBC,Escherichia coli,> 500 µg/mL
same,MIC,Escherichia coli,> 500 µg/mL
same,MBC,Staphylococcus aureus,50 µg/mL
same,MIC,Staphylococcus aureus,1.5 µg/mL
same,MBC,Candida albicans,500 µg/mL
same,MIC,Candida albicans,50 µg/mL
same,MBC,Bacillus cereus,500 µg/mL
same,MIC,Bacillus cereus,6.3 µg/mL
same,MBC,Aspergillus niger,> 500 µg/mL
same,MIC,Aspergillus niger,> 500 µg/mL
same,MBC,[18],> 500 µg/mL
same,MIC,[18],500 µg/mL
